Laboratory results as given in US12564644B2, “Cyclodextrin complexes of specialized proresolving mediators” (THETIS PHARMACEUTICALS LLC, priority 2022, dated 2026).
One block for each compound: values may come before it.

Columns and labels:
[1] = Long-term solid-state chemical stability by HPLC, 24 weeks accelerated conditions (Example 9); format: physicochemical; details: for RvE1 Area % (error +/− 1%) Baseline: 40° C., 75% relative humidity, exposed to air; for % Change at Week 24 vs Baseline (degradation rate) / RvE1 Area % (error +/− 1%) Week 8 / RvE1 Area % (error +/− 1%) Week 16 / RvE1 Area % (error +/− 1%) Week 24: accelerated conditions
Procedure: The stability of RvE1-MgLys alone (“RvE1 Control”) and complexed with cyclodextrins (“RvE1 CD Complexes”) was evaluated. Samples of the test articles were placed in open test tubes and maintained at 40° C. and 75% relative humidity, exposed to air, for 16 weeks. […] Briefly, HPLC analysis was performed on a Halo Guard column (Halo C18 4.6×150 mm, 2.7 μm), mounted on an Agilent HPLC system equipped with a UV detector (272 nm detection). The mobile phase consisted of a gradient between solution A, water, and solution B, methanol, both containing 100 mM of ammonium formate at pH 4.0. The gradient program was 95-0% with respect to solution A and 5-100% with respect to solution B. The flow rate was 0.9 mL/min over 50 minutes. Lack of stability was indicated by a reduction in the area percent purity (area %) of the single major peak of RvE1 (retention time of 31.3 minutes) and the appearance of new HPLC peaks or an increase in the area % of pre-existing impurities. All HPLC measurements of RvE1 purity and degradant levels were calculated based on area percent relative to the detectable components of the molecule including isomers and epimers of RvE1, impurities and degradants induced by the test conditions.
A study of the chemical stability of both RvE1-Mg-Lys alone and sodium RvE1 (“Na-RvE1”) alone and complexed with cyclodextrins was evaluated over 24 weeks. Samples of the test articles as solids were placed in open test tubes and maintained at 40° C. and 75% relative humidity, exposed to air.

[2] = Solid-state physical stability, visual, ambient conditions 168 hours (Example 11); format: physicochemical; details: open test tubes, 18-22° C., relative humidity 52% to 72%
Procedure: The solid-state physical stability of […] alone (“RvE1 Control”) […]-cyclodextrin complex (“RvE1 Complex”) was evaluated (FIG. 24A-D). Samples of the test articles as solids were placed in open test tubes under ambient conditions over a period of 168 hours, at temperature between 18-22° C. and relative humidity between 52% and 72%. The solid-state physical stability was assessed visually based on whether the substance retained its form as a solid powder or transitioned to a liquid form.

[3] = Oral pharmacokinetics, RvE1 in blood plasma after single oral gavage (Example 12); format: in vivo; details: mice
Procedure: To establish the comparative oral pharmacokinetics (“PK”) of RvE1 MgLys alone (“RvE1 Control”) and RvE1 MgLys complexed with gamma-cyclodextrin (“RvE1 Complex”), a study was conducted to investigate RvE1 exposure in blood plasma following a single dose of RvE1 Control or RvE1 Complex administered via oral gavage at various timepoints up to 8 hours of 4 mg/kg of RvE1. Quantitative measurement of RvE1 in blood plasma was determined by HPLC-MS/MS performed on a Halo Guard column (Halo C18 4.6×150 mm, 2.7 μm), mounted on an Agilent HPLC system equipped with a UV detector (272 nm detection).
Sixty five (65) male C57B16 mice were randomized into 3 experimental groups at 8 weeks of age: baseline control (“Baseline”, n=5), RvE1 Control (n=30) and the RvE1 Complex (n=30). Prior to administration of test article, the mice in the Baseline group were sacrificed and blood was drawn to establish the endogenous levels of RvE1 in plasma. The 60 remaining mice received a single dose of RvE1 Control or RvE1 Complex. Five (5) mice in each group were sacrificed at each of the following timepoints to enable the determination of an RvE1 concentration-versus-time curve: 15 minutes, 30 minutes, 1, 2—, 4- and 8-hours post-dose. At the time of sacrifice blood was drawn into EDTA-treated tubes and immediately frozen.

[4] = Solid-state chemical stability by HPLC, 16 weeks accelerated conditions (Example 8); format: physicochemical; details: 40° C., 75% relative humidity, exposed to air
[5] = Chemical stability in solution (deionized water) by HPLC, 16 weeks accelerated conditions (Example 10); format: physicochemical; details: for RvE1 Area % Baseline: 2 mg/ml of RvE1, 40° C., 75% relative humidity, exposed to air; for % Change at Week 16 vs Baseline / RvE1 Area % Week 8 / RvE1 Area % Week 16: 2 mg/ml of RvE1, accelerated conditions
Procedure: The stability of […] alone (“RvE1 Control”) and complexed with cyclodextrins (“RvE1 CD Complexes”) was evaluated. Samples of the test articles were placed in open test tubes and maintained at 40° C. and 75% relative humidity, exposed to air, for 16 weeks. […] Briefly, HPLC analysis was performed on a Halo Guard column (Halo C18 4.6×150 mm, 2.7 μm), mounted on an Agilent HPLC system equipped with a UV detector (272 nm detection). The mobile phase consisted of a gradient between solution A, water, and solution B, methanol, both containing 100 mM of ammonium formate at pH 4.0. The gradient program was 95-0% with respect to solution A and 5-100% with respect to solution B. The flow rate was 0.9 mL/min over 50 minutes. Lack of stability was indicated by a reduction in the area percent purity (area %) of the single major peak of RvE1 (retention time of 31.3 minutes) and the appearance of new HPLC peaks or an increase in the area % of pre-existing impurities. All HPLC measurements of RvE1 purity and degradant levels were calculated based on area percent relative to the detectable components of the molecule including isomers and epimers of RvE1, impurities and degradants induced by the test conditions. The chemical stability of […] or Na-RvE1 alone and complexed with cyclodextrins in solution was evaluated. Samples of the test articles dissolved in deionized water at a concentration of 2 mg/ml of RvE1 were placed in open test tubes and maintained at 40° C. and 75% relative humidity, exposed to air, over a period of 16 weeks.

[6] = Solid-state chemical stability by HPLC, 16 weeks accelerated conditions (Example 8); format: physicochemical
Procedure: The stability of […] alone (“RvE1 Control”) and complexed with cyclodextrins (“RvE1 CD Complexes”) was evaluated. Samples of the test articles were placed in open test tubes and maintained at 40° C. and 75% relative humidity, exposed to air, for 16 weeks. […] Briefly, HPLC analysis was performed on a Halo Guard column (Halo C18 4.6×150 mm, 2.7 μm), mounted on an Agilent HPLC system equipped with a UV detector (272 nm detection). The mobile phase consisted of a gradient between solution A, water, and solution B, methanol, both containing 100 mM of ammonium formate at pH 4.0. The gradient program was 95-0% with respect to solution A and 5-100% with respect to solution B. The flow rate was 0.9 mL/min over 50 minutes. Lack of stability was indicated by a reduction in the area percent purity (area %) of the single major peak of RvE1 (retention time of 31.3 minutes) and the appearance of new HPLC peaks or an increase in the area % of pre-existing impurities. All HPLC measurements of RvE1 purity and degradant levels were calculated based on area percent relative to the detectable components of the molecule including isomers and epimers of RvE1, impurities and degradants induced by the test conditions.

[7] = accelerated conditions, baseline
[8] = accelerated conditions, week 16

RvE1 Area % (error +/− 1%) Baseline ([1]; listed as RvE1 Mg-Lys): 94.8% | RvE1 Area % (error +/− 1%) Baseline ([1]; listed as RvE1 MgLys control): 94.8% | % Change at Week 24 vs Baseline (degradation rate) ([1]; listed as RvE1-MgLys control): 16.6% | % Change at Week 24 vs Baseline (degradation rate) ([1]; listed as RvE1 Mg-Lys): 16.6% | RvE1 Area % (error +/− 1%) Week 8 [1]: 88.4% | RvE1 Area % (error +/− 1%) Week 16 [1]: 82.3% | RvE1 Area % (error +/− 1%) Week 24 ([1]; week 24, listed as RvE1-MgLys Control): 79.1% | RvE1 Area % (error +/− 1%) Week 24 ([1]; week 24, listed as RvE1 Mg-Lys): 79.1% | physical form, visual ([2]; 24 and 168 hours): gel-like substance | physical form, visual ([2]; 8 hours, listed as RvE1-Control): remained in powder form | physical form, visual ([2]; baseline): powder form | AUC (0 to 8 hrs) ([3]; 4 mg/kg of RvE1): 15.2 ng·h/mL | Cmax ([3]; 4 mg/kg of RvE1): 45.5 ng/mL | Tmax ([3]; 4 mg/kg of RvE1): 15 min | RvE1 plasma concentration 15 min ([3]; 4 mg/kg of RvE1, 15 min): 45.5 ng/mL | RvE1 plasma concentration 30 min ([3]; 4 mg/kg of RvE1, 30 min): 6.3 ng/mL | RvE1 plasma concentration 1 hr ([3]; 4 mg/kg of RvE1, 1 hr): 1.2 ng/mL | RvE1 plasma concentration 2 hr ([3]; 4 mg/kg of RvE1, 2 hr): 0.2 ng/mL | RvE1 plasma concentration 4 hr ([3]; 4 mg/kg of RvE1, 4 hr): 0.3 ng/mL | RvE1 plasma concentration 8 hr ([3]; 4 mg/kg of RvE1, 8 hr): 0.1 ng/mL | RvE1 Area % Week 16 ([4]; week 16, listed as RvE1-MgLys): 80.7% | RvE1 Area % Baseline ([4]; open test tubes, baseline, listed as RvE1-MgLys): 94.0% | RvE1 Area % Baseline [5]: 94.8% | % Change at Week 16 vs Baseline [5]: 45.7% | RvE1 Area % Week 8 [5]: 84.3% | RvE1 Area % Week 16 ([5]; week 16, listed as RvE1-MgLys Control): 51.5% | RvE1 Area % Week 16 ([5]; week 16, listed as RvE1 Mg-Lys): 51.5% | % Change at Week 16 vs Baseline (degradation rate) ([6]; 40° C., 75% relative humidity, exposed to air): 14.1% | RvE1 Area % Week 8 ([6]; 40° C., 75% relative humidity, exposed to air, week 8): 86.7% | RvE1 Area % Week 16 ([6]; 40° C., 75% relative humidity, exposed to air, week 16): 80.7% | # of Deg. Peaks ≥0.20% Baseline [6, 7]: 6 | # of Deg. Peaks ≥1.00% Baseline [6, 7]: 2 | # of Deg. Peaks ≥0.20% Week 8 ([6]; accelerated conditions, week 8): 19 | # of Deg. Peaks ≥1.00% Week 8 ([6]; accelerated conditions, week 8): 4 | # of Deg. Peaks ≥0.20% Week 16 [6, 8]: 19 | # of Deg. Peaks ≥1.00% Week 16 [6, 8]: 8 | RvE1 Area % Baseline ([6]; open test tubes, 40° C., 75% relative humidity, exposed to air, baseline): 94%
SMILES: CC[C@@H](O)/C=C/C=C\C[C@@H](O)/C=C/C=C/C=C\[C@@H](O)CCCC(=O)O.CC[C@@H](O)/C=C/C=C\C[C@@H](O)/C=C/C=C/C=C\[C@@H](O)CCCC(=O)O.NCCCC[C@H](N)C(=O)[O-].NCCCC[C@H](N)C(=O)[O-].[Mg+2] [RvE1 Control, RvE1 magnesium dilysinate]
physical form, visual ([2]; 8 hours): began to agglomerate and turn a darker color

RvE1 Area % (error +/− 1%) Baseline [1]: 96.2% | RvE1 Area % (error +/− 1%) Baseline ([1]; listed as Na-RvE1 control): 96.2% | % Change at Week 24 vs Baseline (degradation rate) [1]: 100.0% | % Change at Week 24 vs Baseline (degradation rate) ([1]; listed as Na-RvE1 control): 100% | RvE1 Area % (error +/− 1%) Week 8 [1]: 78.0% | RvE1 Area % (error +/− 1%) Week 16 [1]: 49.8% | RvE1 Area % (error +/− 1%) Week 24 ([1]; week 24): 0.0% | RvE1 Area % (error +/− 1%) Week 24 ([1]; week 24, listed as Na-RvE1 Control): 0% | RvE1 Area % Baseline [5]: 96.2% | % Change at Week 16 vs Baseline [5]: 80.7% | RvE1 Area % Week 8 [5]: 36.0% | RvE1 Area % Week 16 ([5]; week 16): 18.6% | RvE1 Area % Week 16 ([5]; week 16, listed as Na-RvE1 Control): 18.6%
SMILES: CC[C@@H](O)/C=C/C=C/C[C@@H](O)/C=C/C=C/C=C/[C@@H](O)CCCC(=O)[O-].[Na+] [Na-RvE1, sodium RvE1]
